From US10633379B2, “Bromodomain inhibitors” (AbbVie Inc., priority 2016, dated 2020)

Experiments:
BRD4 (BDII_E352-M457) = BRD4 (BDII_E352-M457) (Homo sapiens (Human), UniProt O60885); assay: TR-FRET bromodomain binding assay, BRD4 BDII; details: mean Ki, calculated from IC50, probe Kd and probe concentration
Outline: (§1)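 Probe displacement measured by TR-FRET after 1 h at room temperature, in 20 mM sodium phosphate pH 6.0 and 2% DMSO. BDI used 12 nM protein with 100 nM probe, BDII 4 nM with 30 nM probe, each with 1 nM europium antibody. Ki derived from fitted IC50, probe Kd and probe level.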

BRD4 (BDI_K57-E168) = BRD4 (BDI_K57-E168) (Homo sapiens (Human), UniProt O60885); assay: TR-FRET bromodomain binding assay, BRD4 BDI; details: mean Ki, calculated from IC50, probe Kd and probe concentration
Outline: as §1

What does the source list for CCNC(=O)c1cc2c(-c3cc(C(C)(C)O)c(F)cc3Oc3c(C)cc(F)cc3C)cn(C)c(=O)c2[nH]1 [Example 65, N-ethyl-4-[4-fluoro-2-(4-fluoro-2,6-dimethylphenoxy)-5-(2-hydroxypropan-2-yl)phenyl]-6-methyl-7-oxo-6,7-dihydro-1H-pyrrolo[2,3-c]pyridine-2-carboxamide]?
Ki (BRD4 (BDII_E352-M457)): 1.3 nM; Ki (BRD4 (BDI_K57-E168)): 222 nM

Which results are given for CCNC(=O)c1cc2c(-c3cc(C(C)(O)CO)ccc3Oc3c(C)cccc3C)cn(C)c(=O)c2[nH]1 (stereo not drawn) [Example 66, 4-[5-(1,2-dihydroxypropan-2-yl)-2-(2,6-dimethylphenoxy)phenyl]-N-ethyl-6-methyl-7-oxo-6,7-dihydro-1H-pyrrolo[2,3-c]pyridine-2-carboxamide]?
Ki (BRD4 (BDII_E352-M457)): 1.4 nM; Ki (BRD4 (BDI_K57-E168)): 289 nM

For CCNC(=O)c1cc2c(-c3cc(C(C)(O)CCO)ccc3Oc3c(C)cccc3C)cn(C)c(=O)c2[nH]1 (stereo not drawn) [Example 67, 4-[5-(2,4-dihydroxybutan-2-yl)-2-(2,6-dimethylphenoxy)phenyl]-N-ethyl-6-methyl-7-oxo-6,7-dihydro-1H-pyrrolo[2,3-c]pyridine-2-carboxamide], which Ki (BRD4 (BDII_E352-M457)) is on record?
Its Ki is 1.1 nM.

What about the Ki (BRD4 (BDI_K57-E168)) of the same compound?
Its Ki is 259 nM.

How did the Ki (BRD4 (BDII_E352-M457)) turn out when CCNC(=O)c1cc2c(-c3cc(C(C)(C)O)ccc3Oc3c(C)cccc3C(F)F)cn(C)c(=O)c2[nH]1 [Example 70, 4-{2-[2-(difluoromethyl)-6-methylphenoxy]-5-(2-hydroxypropan-2-yl)phenyl}-N-ethyl-6-methyl-7-oxo-6,7-dihydro-1H-pyrrolo[2,3-c]pyridine-2-carboxamide] was run?
The Ki was 3.7 nM.

And the Ki (BRD4 (BDI_K57-E168))?
Its Ki is 1340 nM.

Which Ki (BRD4 (BDII_E352-M457)) does the source give for Cc1cccc(C(F)F)c1Oc1ccc(C(C)(C)O)cc1-c1cn(C)c(=O)c2[nH]c(C(=O)NC(C)(C)C)cc12 [Example 71, N-tert-butyl-4-{2-[2-(difluoromethyl)-6-methylphenoxy]-5-(2-hydroxypropan-2-yl)phenyl}-6-methyl-7-oxo-6,7-dihydro-1H-pyrrolo[2,3-c]pyridine-2-carboxamide] here?
Its Ki is 7.5 nM.

And the Ki (BRD4 (BDI_K57-E168))?
Its Ki is 2310 nM.

CCNC(=O)c1cc2c(-c3cc(C(C)(C)O)ccc3Oc3c(C)cc(Br)cc3C)cn(C)c(=O)c2[nH]1 [Example 72, 4-[2-(4-bromo-2,6-dimethylphenoxy)-5-(2-hydroxypropan-2-yl)phenyl]-N-ethyl-6-methyl-7-oxo-6,7-dihydro-1H-pyrrolo[2,3-c]pyridine-2-carboxamide] was tested. Which Ki (BRD4 (BDII_E352-M457)) did it give?
The Ki was 1.3 nM.

What about the Ki (BRD4 (BDI_K57-E168)) of the same compound?
The Ki was 794 nM.

What does the source list for CCNC(=O)c1cc2c(-c3cc(C(C)(C)O)ccc3Oc3c(C)cc(C#N)cc3C)cn(C)c(=O)c2[nH]1 [Example 73, 4-[2-(4-cyano-2,6-dimethylphenoxy)-5-(2-hydroxypropan-2-yl)phenyl]-N-ethyl-6-methyl-7-oxo-6,7-dihydro-1H-pyrrolo[2,3-c]pyridine-2-carboxamide]?
Ki (BRD4 (BDII_E352-M457)): 1.5 nM; Ki (BRD4 (BDI_K57-E168)): 417 nM

How did the Ki (BRD4 (BDII_E352-M457)) turn out when CCNC(=O)c1cc2c(-c3cc(C(C)(C)O)ccc3Oc3c(C)ccnc3C)cn(C)c(=O)c2[nH]1 [Example 74, 4-{2-[(2,4-dimethylpyridin-3-yl)oxy]-5-(2-hydroxypropan-2-yl)phenyl}-N-ethyl-6-methyl-7-oxo-6,7-dihydro-1H-pyrrolo[2,3-c]pyridine-2-carboxamide] was run?
The Ki was 3 nM.

What about the Ki (BRD4 (BDI_K57-E168)) of the same compound?
Its Ki is 551 nM.

For Cc1cc(F)cc(C)c1Oc1ccc(C(C)(C)O)cc1-c1cn(C)c(=O)c2[nH]c(C(=O)NC34CC(C3)C4)cc12 [Example 75, N-(bicyclo[1.1.1]pentan-1-yl)-4-[2-(4-fluoro-2,6-dimethylphenoxy)-5-(2-hydroxypropan-2-yl)phenyl]-6-methyl-7-oxo-6,7-dihydro-1H-pyrrolo[2,3-c]pyridine-2-carboxamide], which Ki (BRD4 (BDII_E352-M457)) is on record?
The Ki was 2.9 nM.

And the Ki (BRD4 (BDI_K57-E168))?
The Ki was 743 nM.

Which Ki (BRD4 (BDII_E352-M457)) does the source give for Cc1cccc(C)c1Oc1ccc(C(C)(C)O)nc1-c1cn(C)c(=O)c2[nH]c(C(=O)NC(C)(C)C)cc12 [Example 76, N-tert-butyl-4-[3-(2,6-dimethylphenoxy)-6-(2-hydroxypropan-2-yl)pyridin-2-yl]-6-methyl-7-oxo-6,7-dihydro-1H-pyrrolo[2,3-c]pyridine-2-carboxamide] here?
Its Ki is 8.7 nM.

What about the Ki (BRD4 (BDI_K57-E168)) of the same compound?
The Ki was 927 nM.

For CCNC(=O)c1cc2c(-c3nc(C(C)(C)O)ccc3Oc3c(C)cccc3C)cn(C)c(=O)c2[nH]1 [Example 77, 4-[3-(2,6-dimethylphenoxy)-6-(2-hydroxypropan-2-yl)pyridin-2-yl]-N-ethyl-6-methyl-7-oxo-6,7-dihydro-1H-pyrrolo[2,3-c]pyridine-2-carboxamide], which Ki (BRD4 (BDII_E352-M457)) is on record?
Its Ki is 2.2 nM.

What about the Ki (BRD4 (BDI_K57-E168)) of the same compound?
The Ki was 606 nM.

Which Ki (BRD4 (BDII_E352-M457)) does the source give for CCNC(=O)c1cc2c(-c3cc(C(C)(O)CF)cnc3Oc3c(C)cc(F)cc3C)cn(C)c(=O)c2[nH]1 (stereo not drawn) [Example 78, N-ethyl-4-[2-(4-fluoro-2,6-dimethylphenoxy)-5-(1-fluoro-2-hydroxypropan-2-yl)pyridin-3-yl]-6-methyl-7-oxo-6,7-dihydro-1H-pyrrolo[2,3-c]pyridine-2-carboxamide] here?
The Ki was 2.2 nM.

And the Ki (BRD4 (BDI_K57-E168))?
Its Ki is 253 nM.

Which results are given for CCNC(=O)c1cc2c(-c3cc(C(C)(O)C(F)(F)F)cnc3Oc3c(C)cc(F)cc3C)cn(C)c(=O)c2[nH]1 (stereo not drawn) [Example 79, N-ethyl-4-[2-(4-fluoro-2,6-dimethylphenoxy)-5-(1,1,1-trifluoro-2-hydroxypropan-2-yl)pyridin-3-yl]-6-methyl-7-oxo-6,7-dihydro-1H-pyrrolo[2,3-c]pyridine-2-carboxamide]?
Ki (BRD4 (BDII_E352-M457)): 2.5 nM; Ki (BRD4 (BDI_K57-E168)): 225 nM

What does the source list for CCNC(=O)c1cc2c(-c3cc(C(O)(C(F)(F)F)C(F)(F)F)cnc3Oc3c(C)cc(F)cc3C)cn(C)c(=O)c2[nH]1 [Example 80, N-ethyl-4-[2-(4-fluoro-2,6-dimethylphenoxy)-5-(1,1,1,3,3,3-hexafluoro-2-hydroxypropan-2-yl)pyridin-3-yl]-6-methyl-7-oxo-6,7-dihydro-1H-pyrrolo[2,3-c]pyridine-2-carboxamide]?
Ki (BRD4 (BDII_E352-M457)): 5.2 nM; Ki (BRD4 (BDI_K57-E168)): 486 nM

Which Ki (BRD4 (BDII_E352-M457)) does the source give for CCNC(=O)c1cc2c(-c3cc(C(C)(C)O)ccc3Oc3c(C)cccc3F)cn(C)c(=O)c2[nH]1 [Example 81, N-ethyl-4-[2-(2-fluoro-6-methylphenoxy)-5-(2-hydroxypropan-2-yl)phenyl]-6-methyl-7-oxo-6,7-dihydro-1H-pyrrolo[2,3-c]pyridine-2-carboxamide] here?
Its Ki is 1.1 nM.

And the Ki (BRD4 (BDI_K57-E168))?
Its Ki is 43 nM.

How did the Ki (BRD4 (BDII_E352-M457)) turn out when CCNC(=O)c1cc2c(-c3cc(C(C)(O)CF)ccc3Oc3c(C)cc(F)cc3C)cn(C)c(=O)c2[nH]1 (stereo not drawn) [Example 83, N-ethyl-4-[2-(4-fluoro-2,6-dimethylphenoxy)-5-(1-fluoro-2-hydroxypropan-2-yl)phenyl]-6-methyl-7-oxo-6,7-dihydro-1H-pyrrolo[2,3-c]pyridine-2-carboxamide] was run?
The Ki was 1.1 nM.

And the Ki (BRD4 (BDI_K57-E168))?
The Ki was 350 nM.

CCNC(=O)c1cc2c(-c3cc(C(C)(C)O)ccc3Oc3c(C)cc(Cl)cc3C)cn(C)c(=O)c2[nH]1 [Example 84, 4-[2-(4-chloro-2,6-dimethylphenoxy)-5-(2-hydroxypropan-2-yl)phenyl]-N-ethyl-6-methyl-7-oxo-6,7-dihydro-1H-pyrrolo[2,3-c]pyridine-2-carboxamide] was tested. Which Ki (BRD4 (BDII_E352-M457)) did it give?
Its Ki is 1.9 nM.

And the Ki (BRD4 (BDI_K57-E168))?
The Ki was 610 nM.

For CCNC(=O)c1cc2c(-c3cc(C(C)(C)O)ccc3Oc3c(C)cc(S(C)(=O)=O)cc3C)cn(C)c(=O)c2[nH]1 [Example 85, N-ethyl-4-{5-(2-hydroxypropan-2-yl)-2-[4-(methanesulfonyl)-2,6-dimethylphenoxy]phenyl}-6-methyl-7-oxo-6,7-dihydro-1H-pyrrolo[2,3-c]pyridine-2-carboxamide], which Ki (BRD4 (BDII_E352-M457)) is on record?
Its Ki is 1.8 nM.

And the Ki (BRD4 (BDI_K57-E168))?
The Ki was 433 nM.

With CCNC(=O)c1cc2c(-c3cc(C(C)(O)C(F)(F)F)ccc3Oc3c(C)cc(F)cc3C)cn(C)c(=O)c2[nH]1 (stereo not drawn) [Example 86, N-ethyl-4-[2-(4-fluoro-2,6-dimethylphenoxy)-5-(1,1,1-trifluoro-2-hydroxypropan-2-yl)phenyl]-6-methyl-7-oxo-6,7-dihydro-1H-pyrrolo[2,3-c]pyridine-2-carboxamide] as the compound, how does the Ki (BRD4 (BDII_E352-M457)) read?
Its Ki is 1.4 nM.

What about the Ki (BRD4 (BDI_K57-E168)) of the same compound?
The Ki was 416 nM.

How did the Ki (BRD4 (BDII_E352-M457)) turn out when Cc1cc(F)cc(C)c1Oc1ccc(C(C)(O)CF)cc1-c1cn(C)c(=O)c2[nH]c(C(=O)NC(C)(C)C)cc12 (stereo not drawn) [Example 87, N-tert-butyl-4-[2-(4-fluoro-2,6-dimethylphenoxy)-5-(1-fluoro-2-hydroxypropan-2-yl)phenyl]-6-methyl-7-oxo-6,7-dihydro-1H-pyrrolo[2,3-c]pyridine-2-carboxamide] was run?
Its Ki is 2.8 nM.

And the Ki (BRD4 (BDI_K57-E168))?
Its Ki is 501 nM.

Which Ki (BRD4 (BDII_E352-M457)) does the source give for CCNC(=O)c1cc2c(-c3cc(C(C)(O)CF)ccc3Oc3c(C)cc(Cl)cc3C)cn(C)c(=O)c2[nH]1 (stereo not drawn) [Example 88, 4-[2-(4-chloro-2,6-dimethylphenoxy)-5-(1-fluoro-2-hydroxypropan-2-yl)phenyl]-N-ethyl-6-methyl-7-oxo-6,7-dihydro-1H-pyrrolo[2,3-c]pyridine-2-carboxamide] here?
The Ki was 1.1 nM.

And the Ki (BRD4 (BDI_K57-E168))?
Its Ki is 389 nM.

With CCNC(=O)c1cc2c(-c3cc(C(C)(C)O)cnc3-c3ccc(F)cc3F)cn(C)c(=O)c2[nH]1 [Example 89, 4-[2-(2,4-difluorophenyl)-5-(2-hydroxypropan-2-yl)pyridin-3-yl]-N-ethyl-6-methyl-7-oxo-6,7-dihydro-1H-pyrrolo[2,3-c]pyridine-2-carboxamide] as the compound, how does the Ki (BRD4 (BDII_E352-M457)) read?
Its Ki is 1.7 nM.

What about the Ki (BRD4 (BDI_K57-E168)) of the same compound?
The Ki was 281 nM.

What does the source list for Cc1cc(S(C)(=O)=O)cc(C)c1Oc1ccc(C(C)(C)O)cc1-c1cn(C)c(=O)c2[nH]c(C(=O)NC(C)(C)C)cc12 [Example 90, N-tert-butyl-4-{5-(2-hydroxypropan-2-yl)-2-[4-(methanesulfonyl)-2,6-dimethylphenoxy]phenyl}-6-methyl-7-oxo-6,7-dihydro-1H-pyrrolo[2,3-c]pyridine-2-carboxamide]?
Ki (BRD4 (BDII_E352-M457)): 2 nM; Ki (BRD4 (BDI_K57-E168)): 158 nM

With CCNC(=O)c1cc2c(-c3cc(C(C)(C)O)cnc3Oc3c(C)ccc(F)c3C)cn(C)c(=O)c2[nH]1 [Example 91, N-ethyl-4-[2-(3-fluoro-2,6-dimethylphenoxy)-5-(2-hydroxypropan-2-yl)pyridin-3-yl]-6-methyl-7-oxo-6,7-dihydro-1H-pyrrolo[2,3-c]pyridine-2-carboxamide] as the compound, how does the Ki (BRD4 (BDII_E352-M457)) read?
Its Ki is 1.6 nM.

What about the Ki (BRD4 (BDI_K57-E168)) of the same compound?
Its Ki is 271 nM.
